# Experimental data: paper PMC7316490, “Dihydrofolate Reductase Is a Valid Target for Antifungal Development in the Human Pathogen Candida albicans” (mSphere, 2020)
# Where two headings read alike, the source gives them in different places.
# What was measured:
# [1] = tested on: disseminated Candida infections; settings: cited from earlier work; for fraction of patients nonresponsive to treatment: patients with disseminated Candida infections
# PTET98-DFR1 strain [2] = assay: Mouse model of disseminated candidiasis; type: in vivo, BALB/c mice
# Experimental: Next, we determined if DFR1 expression is essential for C. albicans virulence in a mammalian host using a mouse model of disseminated candidiasis. Female BALB/c mice were split into two treatment groups: group 1 was treated with doxycycline in a gel food formulation from 72 h before infection and for the duration of the experiment; group 2 was mock treated using unsupplemented gel food. The mice were then infected with ∼5 × 10^5 yeast cells of the PTET98-DFR1 strain via the lateral tail vein, and their health was monitored for 12 days. […] All mice in the mock-treated group succumbed to the infection by day 7 (Fig. 5A), confirming the virulence of the PTET98-DFR1 strain under nonrepressing conditions. […] On day 12, surviving animals were euthanized, kidneys were extracted and homogenized, and levels of fungal colonization were determined as CFU counts. […] To determine if suppression of Dfr1p activity is sufficient to resolve an established infection, a second experiment was performed in which mice were infected with the PTET98-DFR1 strain, and doxycycline treatment was initiated 24-h postinfection. […] Furthermore, C. albicans is unable to scavenge sufficient sources of folate to survive within mammalian tissue, and de novo biosynthesis is required. Indeed, the antifungal efficacy achieved upon repressing Dfr1p expression appears to be similar to that attained upon suppression of Erg11p expression. Accordingly, DHFR and likely other FOL pathway enzymes can provide potentially efficacious targets for antifungal development.
# FIG 5 Dfr1p is essential for Candida albicans virulence in a mouse model of disseminated candidiasis. Groups of BALB/c mice (n = 6) were inoculated with ∼5 × 10^5 CFU of either the dfr1Δ/PTET98-DFR1 strain or the erg11Δ/PTETO-ERG11 strain via the lateral tail vein injections. The Erg11p strain was included to compare the antifungal efficacy of targeting Dfr1p with a previously validated target. The mice were monitored three times daily for 12 days, and those showing signs of distress were humanely euthanized. Mice were treated with 2 mg/g doxycycline (DOX) or mock treated with vehicle alone provided in a gel food formulation from 72 h prior to infection and throughout the duration of the experiment. […].
# All animal experiments were done according to protocols approved by the University of Tennessee Institutional Animal Care and Use Committee. Groups of 6- to 8-week-old female BALB/c mice (Charles River Laboratories) were randomly assigned to one of three treatment groups 3 days before infection. Group 1 (minus doxycycline) was provided 20 g of DietGel (clear H2O) per day, per cage of 4 mice, while group 2 (plus doxycycline) was provided the same diet supplemented with 2 mg/ml of doxycycline hyclate. Group 3 (posttreatment) mice were given the DietGel without doxycycline until 24 h after infection and were administered 10 mg/kg of doxycycline through oral gavage at […], 24, and 36 h postinfection. Treatment was maintained daily for the duration of the experiment (up to 12 days postinfection). Each C. albicans strain was grown overnight in YPD cultures at 30°C (200 rpm). Cells were washed twice in sterile endotoxin-free phosphate-buffered saline (PBS), and cell density was determined using a hemocytometer. […] Mice were monitored for 12 days, and those showing distress were euthanized. Survival data were plotted on a Kaplan-Meier curve and analyzed by a log rank (Mantel-Cox) test using GraphPad Prism, version 8.00. […]
# PTET98-DFR1 strain [3] = assay: Passaging of doxycycline-repressible strain in fetal bovine serum; type: cell-based; settings: Candida albicans, read-out: growth inhibition
# Experimental: FIG 2 Dfr1p is essential for Candida albicans growth in vitro. A dfr1Δ/PTETO98-DFR1 strain was sequentially passaged in YPD broth (A), YNB broth (B), or fetal bovine serum (C), each supplemented with 5 μg/ml doxycycline (DOX). Following inoculation at approximately 5 × 10^5 cells/ml, each culture was incubated at 30°C for 24 h, and growth was measured after 24 h as the OD600 value. Relative growth was then expressed as a percentage of the untreated control, i.e., without doxycycline. The values presented here are representative of two independent experiments.
# A combination of dTMP, adenine, histidine, and methionine, each of which requires folate for its biosynthesis, is sufficient to partially restore S. cerevisiae growth following treatment with antifolates ([36]). However, these supplements were not sufficient to restore C. albicans growth in the presence of MTX (Fig. 3). […] Finally, we examined if C. albicans was able to scavenge sufficient folates or folate-dependent metabolites from blood serum to negate the need for de novo biosynthesis. The PTET98-DFR1 strain was passaged for 3 days in 100% fetal bovine serum (FBS) with or without doxycycline. In the first passage, doxycycline inhibited growth by ∼60%, with increasing growth inhibition seen in subsequent subcultures (Fig. 2C). […]
# [4] = tested on: wild-type C. albicans strain (SC5314); assay: Antifungal susceptibility testing (dose-response growth, OD600); type: cell-based, Candida albicans; settings: for MIC: Candida albicans, SC5314, YNB medium buffered to either pH 5 or 7; for C. albicans growth inhibition (in words): YNB medium, pH 5 and pH 7
# Experimental: A wild-type C. albicans strain (SC5314) was seeded at 1 × 10^4 cells/ml into YNB medium without folate or PABA with the indicated supplements and increasing concentrations of MTX. After 48 h of incubation at 30°C, growth was quantified as the OD600 value and expressed as a percentage of the value for the DMSO-treated control. The values presented here are the average of two replicates and are representative of two independent experiments.
# Approximately 1 × 10^4 cells/ml of a wild-type C. albicans strain was seeded into a 96-well plate with increasing concentrations of MTX in YNB pH 5, YNB pH 7, and RPMI pH 7 media. After 48 h, the OD600 was measured and expressed as a percentage of the value for the DMSO-treated control. The results presented here are the averages of two replicates and are representative of two independent experiments.
# Stock solutions of MTX were prepared at 10 mM in dimethyl sulfoxide (DMSO) and diluted as needed in the same solvent. […] The final concentration of DMSO was 0.5% for all treatments. Plates were then incubated at 30°C before growth was quantified after 24 and 48 h by measuring the OD600 using a Cytation 5 plate reader (Bio-Tek Instruments, Inc.). MIC50 values were identified visually using the CLSI antifungal susceptibility assay and then confirmed by quantifying growth by the OD600 value. The growth of each strain at each drug concentration was then expressed relative to that of the DMSO-alone control. The susceptibility to MTX at the highest concentration at each pH was compared to that of the other pH values using a two-tailed Student's t test.
# [5] = target: T1, Candida albicans dihydrofolate reductase (Candida albicans, UniProt P22906); assay: biochemical; type: biochemical; settings: for inhibition of C. albicans DHFR (in words): dose-response experiments, purified enzyme
# T1 construct: The optimized DFR1 ORF was then cloned into pET15b; 6xHis; host or cells: Escherichia coli
# T1 sequence (P22906 1-192): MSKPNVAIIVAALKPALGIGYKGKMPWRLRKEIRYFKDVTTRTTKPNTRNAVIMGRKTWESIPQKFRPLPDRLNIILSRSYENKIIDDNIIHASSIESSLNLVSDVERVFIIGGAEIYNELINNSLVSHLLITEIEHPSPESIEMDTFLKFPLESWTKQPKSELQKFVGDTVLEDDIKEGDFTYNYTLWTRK
# Text: Finally, we tested a panel of additional antifolates to examine the relationship between their antifungal potencies and capacities to inhibit C. albicans DHFR. The enzyme was purified using a 6×His tag ([45], [46]), and activity was detected by measuring the conversion of NADPH to NADP^+ at an optical density at 340 nm (OD340) ([34]).
# The C. albicans DFR1 open reading frame (ORF) sequence was retrieved from the Candida Genome Database ([68]) and was codon optimized for expression in Escherichia coli. The optimized DFR1 ORF was then cloned into pET15b ([69]) to allow propagation and expression of C. albicans Dfr1p in E. coli. Cultures of E. coli transformed with pET15b-CaDfr1p (Biomatik) were grown overnight in LB plus ampicillin. The culture was diluted 1:100 into fresh medium and incubated at 35°C for 6 h; then Dfr1p expression was induced with isopropyl-β-D-thiogalactopyranoside (IPTG) at a final concentration of 0.5 mM for 16 h. Cells were collected by centrifugation and resuspended in binding buffer (6 g/liter Tris base, pH 7.5, 8.8 g/liter NaCl, 1 mM dithiothreitol [DTT], 0.68 g/liter imidazole, 5% glycerol, 1× protease inhibitor). Resuspended cells were lysed with 1 mg/ml chicken white lysozyme (Sigma) for 60 min at 4°C. Then, Triton X-100 and NaCl were added to 0.1% and 0.5 M, respectively. The lysate was then centrifuged, and the supernatant was collected. The supernatant was added to nickel resin beads (Sigma) and incubated at 4°C for 30 min with rotation. The buffer was removed, and the beads were washed twice with binding buffer. Then the beads were suspended in elution buffer (6 g/liter Tris base, pH 7.5, 8.8 g/liter NaCl, 1 mM DTT, 34 g/liter imidazole, 5% glycerol) and incubated at 4°C for 30 min. The elution was removed and then run on SDS-PAGE gels (Sigma) to confirm the presence of CaDfr1p. SDS-PAGE gels were run according to the manufacturer’s protocol.
# The enzymatic activity of C. albicans Dfr1p was determined using a dihydrofolate reductase assay (Sigma). The manufacturer’s protocol was adapted to the fungal enzyme by scaling down the volume to 100-μl reaction mixtures with 88 μl of buffer, 6 μl of a 1 mM NADPH stock, 5 μl of a 1 mM DHF stock, and 1 μl of 3-mg/ml purified enzyme. The loss of NADPH was quantified as the decrease in absorption at the OD340 over a 30-min time frame. The IC50 was calculated by converting the change in the OD340 value per minute into the amount of THF produced per minute and then compared to the level in an untreated control.
# [6] = doxycycline treatment initiated 24-h postinfection
smiles,measurement,setting,value
C[C@@H](c1nc(-c2ccc(C#N)cc2)cs1)[C@](O)(Cn1cncn1)c1cc(F)ccc1F [isavuconazole],fraction of patients nonresponsive to treatment,[1],approximately one-third
C[C@H]1c2cccc(O)c2C(=O)C2=C(O)[C@]3(O)C(=O)C(C(N)=O)=C(O)[C@@H](N(C)C)[C@@H]3[C@@H](O)[C@@H]21 [doxycycline],kidney fungal colonization (CFU) on day 12,PTET98-DFR1 strain [2]; doxycycline from 72 h before infection,5 of the 8 surviving mice had undetectable levels of fungal colonization
same,survival,"PTET98-DFR1 strain [2]; doxycycline in gel food from 72 h before infection, monitored 12 days",all doxycycline-treated mice survived for the duration of the experiment
same,kidney fungal colonization at end of experiment,PTET98-DFR1 strain [2]; [6],Half of these mice had undetectable levels of fungal colonization
same,time to resolution of initial symptoms,PTET98-DFR1 strain [2]; [6],≤ 6 days
same,survival,"PTET98-DFR1 strain [2]; doxycycline treatment initiated 24-h postinfection, to day 12 postinfection",all mice survived the duration of the experiment
same,inhibition at 5 µg/mL,PTET98-DFR1 strain [3],~60%
"COc1cc(Cc2cnc(N)nc2N)cc(OC)c1OC [Trimethoprim, trimethoprim]",MIC,[4],> 25 µM
"[H]/N=C(\N/C(=N/[H])Nc1ccc(Cl)cc1)NC(C)C [Proguanil, proguanil]",MIC,[4],> 25 µM
same,inhibition of C. albicans DHFR (in words),[5],lacked activity
same,IC50,"[5]; purified C. albicans DHFR (6×His tag), read-out: IC50",> 10000 nM
"Nc1nc2[nH]cc(CCc3ccc(C(=O)N[C@@H](CCC(=O)O)C(=O)O)cc3)c2c(=O)[nH]1 [Pemetrexed, pemetrexed]",C. albicans growth inhibition (in words),[4],antifungal activity at pH 5 but not at pH 7
same,IC50,[5],1000 nM
same,inhibition of C. albicans DHFR (in words),[5],inhibited C. albicans DHFR activity
"CCc1nc(N)nc(N)c1-c1ccc(Cl)cc1 [Pyrimethamine, pyrimethamine]",C. albicans growth inhibition (in words),[4],failed to inhibit C. albicans growth at either pH
same,IC50,[5],100 nM
same,inhibition of C. albicans DHFR (in words),[5],inhibited C. albicans DHFR activity
OC(Cn1cncn1)(Cn1cncn1)c1ccc(F)cc1F [fluconazole],fraction of patients nonresponsive to treatment,[1],approximately one-third
C[C@@H](c1ncncc1F)[C@](O)(Cn1cncn1)c1ccc(F)cc1F [voriconazole],fraction of patients nonresponsive to treatment,[1],approximately one-third
C[C@@H]1[C@H](O)[C@@H](C)/C=C/C=C/C=C/C=C/C=C/C=C/C=C/[C@H](O[C@@H]2O[C@H](C)[C@@H](O)[C@H](N)[C@@H]2O)C[C@@H]2O[C@](O)(C[C@@H](O)C[C@@H](O)[C@H](O)CC[C@@H](O)C[C@@H](O)CC(=O)O[C@H]1C)C[C@H](O)[C@H]2C(=O)O [amphotericin B],favorable response rate,[1]; patients with disseminated candidiasis,62%
